Measured values from patent US12728123B2, “Product” (Sesh Products Inc., priority 2012, dated 2026).

Conditions: at a pH of about 8.8

CN1CCCC1c1cccnc1 (stereo not shown) [nicotine]
nicotine in the nonprotonated form: approximately 90%
